Data: patent publication US8507529B2, “Methods of using a nitroxide antioxidant in cosmetic and dermatological compositions” (Jarrow Formulas, Inc., priority 2005, dated 2013)

Assays:
[1] = Peroxidation of multilamellar phosphatidylcholine (PC) liposomes induced by UVA, TBA assay (TBARS); conditions: 3.5 mM PC liposomes, 275 kJ/m^2 UVA; for level of UVA-induced lipid peroxidation (TBARS absorbance): 100 μM compounds alone or combined, FIG. 4
[2] = Optical absorption spectra before and after UVA exposure (photostability); assay type: physicochemical; conditions: 100 μM in phosphate buffer pH 7.4, 275 kJ/m^2 UVA, ethyl acetate extraction, FIG. 3
Experimental: FIG. 3. […] See Detailed Description for experimental details.
The reason for using buffer was to maintain the same medium as the peroxidation experiments so that comparisons between the optical absorption experiments and lipid peroxidation could be meaningful.
10 mM Stock solutions of TEMPOL and the photoactive ingredients were prepared in acetonitrile. […] The solutions were then transferred to a 24 multi-well plate for cell cultures (Orange Scientific, Cambrex BioScience, Walkerville, Inc.) which was placed on a brass block embedded on ice at a distance of 20 cm from the light source. […] After illumination, 2.4 ml of sample were collected from each well and extracted with the same volume of ethyl acetate. The organic phase was separated and its absorption spectrum was then run on a UV Kontron 941 spectrophotometer. For the non-illuminated samples, the same procedure was followed for the same length of time except that the samples were exposed to direct artificial laboratory working light.

[3] = Absorption spectra of 50 μM compounds in acetonitrile; assay type: physicochemical; conditions: 50 μM in acetonitrile, FIG. 2
Experimental: FIG. 2. Absorption spectra of 50 μM compounds in acetonitrile.

[4] = system: transgenic murine fibroblast culture; conditions: transgenic murine fibroblast culture model of cutaneous photoaging; cited from earlier work
human dermal fibroblasts = conditions: cited from earlier work

Compound | level of UVA-induced lipid peroxidation (TBARS absorbance) [1] | change in spectral absorption after UVA exposure [2] | other results
2,2,6,6-tetramethyl-piperidin-4-yl-p-methoxy cinnamyloxy-1-oxyl [MC-NO] | greatly reduced to almost control levels | retains the majority of its original absorbance | spectral profile and extinction coefficient [3]: same spectral profile and extinction coefficient as OMC
COc1ccc(C(=O)CC(=O)c2ccc(C(C)(C)C)cc2)cc1 [Parsol 1789, 4-tert-butyl-4′-methoxydibenzoylmethane] |  |  | level of UVA-induced lipid peroxidation (TBARS absorbance) with Parsol 1789 ([1]; 100 μM Parsol 1789 alone or combined with 100 μM compound, FIG. 5): significant increase
CC1(C)CC(O)CC(C)(C)N1[O] [TEMPOL, 4-hydroxy-2,2,6,6,-tetramethyl-piperidine-1-oxyl] |  |  | protection against UV radiation [4]: affords protection against UV radiation; protection against UV radiation (human dermal fibroblasts): affords protection against UV radiation
CCCCC(CC)COC(=O)C=Cc1ccc(OC)cc1 (centres unmarked) [OMC, 2-ethylhexyl-4-methoxycinnamate] | seems to protect | strong decrease in spectral absorption | 
